The values below come from US4636496A, “Compositions inhibiting murine MXT ductal carcinoma” (Wayne State University, priority 1986, dated 1987).

The test system of assay [1] is Mammary Tumors Induced by Dimethylbenz(a)anthracene. As to the kind of experiment: Effects on mammary tumors induced by dimethylbenz(a)anthracene (DMBA), s.c. injection for 35 days. The assay is classed as in vivo, Sprague-Dawley rats. Conditions: for Mean tumor volume / Mean tumor no. (no. tumors/rat): 24 mg/kg s.c., 35 days, 7-10 rats/group, mean ± S.D.; for Mean tumor volume: control (None) 1.48 ± 2.09; for Mean tumor no. (no. tumors/rat): control (None) 3.30 ± 2.60; for significance of treatment results (in words): compared to control tumors, Student's t test. The source says: Chemicals and Reagents. Estrone, 17-beta-estradiol 3-benzoate, estrone sulfate, aryl sulfatase (EC 3.1.6.1), beta-glucuronidase (EC3.2.1.31), 7,12-dimethylbenz(a)anthracene (DMBA), and 5-fluorouracil were obtained from Sigma Chemical Co. (St. Louis, Mo.). 4-Nitroestrone 3-methyl ether, 4-nitroestrone, and 2,4-dinitroestrone were synthesized by the procedures of Tomson et al., supra.
Animals. Virgin female Sprague-Dawley rats (The Charles River Co., Wilmington, Mass.) were housed 4 to 6/cage in a light (12 hr/day)--and temperature (24°)--controlled room and given a diet of Wayne Lab-Blox laboratory chow (Allied Mills, Inc., Chicago, Ill.) and tap water ad libitum. At 50 days of age, rats were intubated with DMBA (10 mg/100 g body weight) dissolved in sesame oil (20 mg/ml). Beginning at Day 45 after intubation, all animals were weighed and palpated once per week. Tumor volumes were calculated by measuring 2 diameters with a caliper and the third dimension with a ruler, then by substituting values:
where a, b, and c are the 3 different diameters of the tumor. The agreement of the in vivo tumor volume and measurements of excised tumors identified at necropsy was 95 to 99%. When about 75% of rats had palpable tumors (81 to 92 days after intubation), the animals were randomized, excluding rats with tumors larger than 2.00 ml and rats with more than 5 tumors/animal. The mean initial tumor volumes in control and treated groups ranged between 0.4 and 0.9 cu cm over the various experiments. When necessary, ovariectomy (ether anesthesia) was performed on the first or second day after the initiation of the study. The significance of difference between treatment groups was examined by Student's t test.
Estrogen derivatives (>99% pure by thin-layer chromatography) were injected s.c. daily (Monday to Friday). After distribution in SSV (steroid-suspending vehicles, 0.9% NaCl solution with 0.5% sodium carboxymethyl-cellulose-7, 0.4% polysorbate; and 0.9% benzylalcohol, obtained from the National Cancer Institute), the steroids (20 mg/ml) were administered at 0.12 to 54 mg/kg body weight. The suspension was sonicated before use to achieve uniform distribution. 17-Beta-estradiol 3-benzoate was dissolved directly in sesame oil to a concentration of 2.5 mg/ml; 5 fluorouracil was dissolved in water (25 mg/ml). The control group was given injections of SSV or sesame oil alone.
The toxicity of all antitumor agents was determined by comparing body weights of treated and control animals.
Postmortem Examination and Histopathology of Tumors. Rats were selected for colchicine injections (2 mg/kg body weight) 2 hr prior to necropsy to obtain an accurate measurement of mitotic indices of tumors. Animals were sacrificed with CO2 gas or bled to death via the abdominal aorta. Tumors and tissues were removed and preserved in 10% neutral buffered formalin for histopathological examination. Gross anomalies of abdominal, thoracic, and cranial cavities were recorded. Uteri were removed, trimmed, and weighed fresh. Ovaries, adrenals, and pituitaries were trimmed and weighed after fixation.
Histopathological observations on hematoxylin-and iosin-stained tumor and organ sections were performed, and comparisons between the control and treated groups were carried out using computer analysis. The microscopic parameters used to judge the degree of anaplasia in DMBA-induced mammary neoplasms, when treated animals were compared to controls, were: (a) the type of epithelium or mammary tissue involved; (b) the degree of encapsulation of the neoplasm; (c) the number of mitotic figures observed; (d) the extent of stroma invasions of the neoplastic epithelium; (e) the severity of lymphocytic infiltration of the neoplasms; and (f) the regressive, degenerative, or vacuolative changes in the neoplastic epithelium. […] Histological examination was performed on all mammary tumors. […]

The subject of assay [2] is hormone dependent mammary tumors, induced by 7,12-dimethylbenz(a)anthracene. Conditions: cited from earlier work.
The target in assay [3] is T1, Porcine Endometrial Estrogen Sulfotransferase (Sus scrofa, UniProt A0A286ZW98).
T1 construct: from tissue; host or cells: porcine endometrium
T1 sequence (A0A286ZW98 1-296): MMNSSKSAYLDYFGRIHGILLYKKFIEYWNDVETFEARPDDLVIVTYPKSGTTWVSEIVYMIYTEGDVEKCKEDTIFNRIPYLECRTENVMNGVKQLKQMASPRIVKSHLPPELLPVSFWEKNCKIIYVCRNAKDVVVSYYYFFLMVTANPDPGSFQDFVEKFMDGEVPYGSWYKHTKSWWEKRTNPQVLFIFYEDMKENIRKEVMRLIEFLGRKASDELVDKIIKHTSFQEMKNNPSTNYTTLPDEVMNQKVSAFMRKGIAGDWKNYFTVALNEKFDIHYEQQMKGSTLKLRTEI
Kind of assay: Inhibition of porcine endometrial estrogen sulfotransferase. It counts as biochemical. Conditions: compared within Table III. The method, then:
Compounds prepared in the foregoing examples were evaluated as inhibitors of porcine estrogen sulfotransferase as taught by Rozhin et al., J. Biol. Chem., 252:7214-7220 (1977) and Brooks et al., U.S. Pat. No. 4,496,555.

In assay [4] the test system is MXT Mouse Mammary Ductal Carcinoma. Kind of assay: Subcutaneous treatment of early stage, hormone-dependent MXT mouse mammary ductal carcinoma. The assay is classed as in vivo.

“Also recorded” adds a separate entry of the source.

`COc1ccc2c(c1[N+](=O)[O-])CC[C@@H]1[C@@H]2CC[C@]2(C)C(=O)CC[C@@H]12` [4-Nitroestrone 3-methyl ether, 4-Nitroestrone 3-Methyl Ether]: in assay [1], the Mean tumor volume was 0.05 ± 0.05 cu cm and the “Mean tumor no. (no. tumors/rat)” value is 1.35 ± 0.40 no. tumors/rat. The “growth of hormone dependent mammary tumors (in words)” value in assay [2] (DMBA-induced) was “found to inhibit the growth of hormone dependent mammary tumors”. The “route of administration to which utility is limited (in words)” value in assay [2] (particularly intraperitoneal or subcutaneous injection) is “essentially limited to parental administration”.

Regarding `C[C@]12CC[C@@H]3c4cc([N+](=O)[O-])c(O)c([N+](=O)[O-])c4CC[C@H]3[C@@H]1CCC2=O` [2,4-Dinitroestrone, 2,4-dinitroestrone], in assay [1], the Mean tumor volume was 1.14 ± 1.37 cu cm, the “Mean tumor no. (no. tumors/rat)” value came to 2.90 ± 1.67 no. tumors/rat and the “significance of treatment results (in words)” value (shortened to “significance”) is given as “insignificant”.

On to `COc1c(Br)cc2c(c1Br)CC[C@@H]1[C@@H]2CC[C@]2(C)C(=O)CC[C@@H]12` [2,4-Dibromoestrone 3-methyl ether, 2,4-dibromoestrone 3-methyl ether], for which, in assay [1], the Mean tumor volume turned out to be 1.24 ± 1.07 cu cm, the “Mean tumor no. (no. tumors/rat)” value turned out to be 4.26 ± 2.51 no. tumors/rat and the “significance” value is listed as “insignificant”.

Turning to `C[C@]12CC[C@@H]3c4ccc(O)c([N+](=O)[O-])c4CC[C@H]3[C@@H]1CCC2=O` [4-Nitroestrone, 4-nitroestrone], in assay [1], the Mean tumor volume stood at 0.75 ± 0.10 cu cm, the “Mean tumor no. (no. tumors/rat)” value is recorded as 1.95 ± 2.60 no. tumors/rat and the “significance” value is reported as “insignificant”.

With `C[C@]12CC[C@@H]3c4cccc([N+](=O)[O-])c4CC[C@H]3[C@@H]1CC[C@@H]2O` [4-Nitroestra-1,3,5(10)-trien-17-beta-ol], the “estrogen sulfotransferase inhibitory activity (in words)” value in assay [3] is on record as “most active compound”. Also, in assay [4] (mouse, in vivo), the “growth of MXT mouse mammary ductal carcinoma (in words)” value is “inhibited the growth of MXT mouse mammary ductal carcinoma; also recorded: shown to inhibit the growth of murine MXT mammary ductal carcinoma”. Further, the “T/C Value Day 39 (%)” value in assay [4] (s.c. 200 mg/kg, QD 1-19) is given as 8.2%. Besides, the “Time for Median Tumor to Reach 500 mg” value in assay [4] (s.c. 200 mg/kg, QD 1-19, control 18) was determined as 45.
